From ChEMBL document CHEMBL6120996, “Discovery and optimization of 1,2,4-triazole derivatives as novel ferroptosis inhibitors” (Eur J Med Chem, 2025)
Activity calls are given as the source filed them. No cut-off for these calls is given here.

How the values were obtained:
SK-HEP1 [1] = assay: Inhibition of RSL3 induced lipid-ROS accumulation in human SK-HEP1 cells at 1 uM incubated for 0.5 hrs by C11-BODIPY 581/591 staining coupled with flow cytometry analysis; type: functional, cell-based
[2] = Metabolic stability in rat plasma assessed as half life at 1 uM by LC-MS/MS analysis; type: ADME, cell-free
786-0 [3] = assay: Inhibition of RSL3-induced ferroptosis in human 786-0 cells assessed as cell viability incubated for 24 hrs by CellTiter-LumiTM assay; type: functional, cell-based; details: 786-0, 24 h
786-0 [4] = assay: Effect on erastin-induced decrease in GSH level in human 786-0 cells at 1 uM incubated for 10 hrs by Total intracellular GSH assay; type: functional, cell-based
786-0 [5] = assay: Inhibition of STS induced apoptosis in human 786-0 cells assessed as cell viability at 1 uM incubated for 24 hrs by CellTiter-LumiTM assay; type: functional, cell-based
786-0 [6] = assay: Effect on FTH1 expression in human 786-0 cells in presence of 0.25 uM RSL3 at 1 uM incubated for 2.5 hrs by Western blot analysis; type: functional, cell-based
[7] = Microsomal stability in rat liver microsomes assessed as hepatic extraction ratio at 0.1 uM by LC-MS/MS analysis; type: ADME, Microsome; details: read-out: ERH
Mus musculus [8] = assay: Anti-ferroptotic activity in ConA-induced C57 mouse liver injury model assessed as reduction in AST levels in serum at 10 mg/kg, ip pre-treated 1 day followed by challenged with ConA measured after 24 hrs; type: functional, organism-based
Mus musculus [9] = assay: Anti-ferroptotic activity in ConA-induced C57 mouse liver injury model assessed as decrease in acute liver injury at 10 mg/kg, ip pre-administered one day followed by treated with ConA measured after 24 hrs by HE staining based analysis; type: functional, organism-based; details: time 48.0 hrs
[10] = Inhibition of RSL3 induced ferroptosis in H9c2 cells assessed as cell viability incubated for 24 hrs by CellTiter-LumiTM assay; type: functional, cell-based; details: Rattus norvegicus, H9c2, 24 h
786-0 [11] = assay: Inhibition of RSL3 induced lipid-ROS accumulation in human 786-0 cells incubated for 2.5 hrs by C11-BODIPY 581/591 staining coupled with flow cytometry analysis; type: functional, cell-based; details: dose 0.1-1 µM
[12] = Antioxidant activity assessed as free radical scavenging activity incubated for 30 mins in dark by DPPH assay relative to control; type: functional
786-0 [13] = assay: Effect on IRP1 expression in human 786-0 cells at 1 uM incubated for 2.5 hrs by western blot analysis; type: functional, cell-based
Mus musculus [14] = assay: Anti-ferroptotic activity in ConA-induced C57 mouse acute liver injury model assessed as assessed as reduction in 4-HNE accumulation in liver tissue at 10 mg/kg, ip pre-administered one day followed by treated with ConA measured after 24 hrs by 4-HNE staining based analysis; type: functional, organism-based; details: time 48.0 hrs
HT-1080 = assay: Anti-ferroptotic activity in human GPX4 knockout HT-1080 cells assessed as cell viability at 1 uM incubated for 24 hrs by CellTiter-LumiTM plus luminescent cell viability assay; type: functional, cell-based
786-0 [15] = assay: Effect on IRP1 expression in human 786-0 cells in presence of 0.25 uM RSL3 at 1 uM incubated for 2.5 hrs by Western blot analysis; type: functional, cell-based
Mus musculus [16] = assay: Anti-ferroptotic activity in ConA-induced C57 mouse liver injury model assessed as reduction in ALT levels in serum at 10 mg/kg, ip pre-treated 1 day followed by treated with ConA measured after 24 hrs; type: functional, organism-based; details: time 2.0 day
[17] = Metabolic stability in human plasma assessed as half life at 1 uM by LC-MS/MS analysis; type: ADME, cell-free
SK-HEP1 [18] = assay: Inhibition of RSL3 induced lipid-ROS accumulation in human SK-HEP1 cells at 1 uM incubated for 2.5 hrs by C11-BODIPY 581/591 staining coupled with flow cytometry analysis; type: functional, cell-based
786-0 [19] = assay: Effect on FTL expression in human 786-0 cells in presence of 0.25 uM RSL3 at 1 uM incubated for 2.5 hrs by Western blot analysis; type: functional, cell-based
[20] = Inhibition of erastin induced ferroptosis in human 786-0 cells assessed as cell viability incubated for 24 hrs by CellTiter-LumiTM assay; type: functional, cell-based; details: 786-0, 24 h
786-0 [21] = assay: Effect on SLC7A11 expression in human 786-0 cells at 1 uM incubated for 2.5 hrs by Western blot analysis; type: functional, cell-based
[22] = Inhibition of RSL3 induced ferroptosis in human SK-HEP1 cells assessed as cell viability incubated for 24 hrs by CellTiter-LumiTM assay; type: functional, cell-based; details: SK-HEP1, 24 h
786-0 [23] = assay: Cytotoxicity against human 786-0 cells assessed as cell viability incubated for 24 hrs by CellTiter-LumiTM assay; type: functional
[24] = Microsomal stability in rat liver microsomes assessed as hepatic clearance at 0.1 uM by LC-MS/MS analysis; type: ADME, Microsome
786-0 [25] = assay: Effect on FTH1 expression in human 786-0 cells at 1 uM incubated for 2.5 hrs by western blot analysis; type: functional, cell-based
Mus musculus [26] = assay: Anti-ferroptotic activity in ConA-induced C57 mouse acute liver injury model assessed as assessed as reduction in PTGS2 mRNA levels in liver tissue at 10 mg/kg, ip pre-administered one day followed by treated with ConA measured after 24 hrs by qRT-PCR analysis; type: functional, organism-based; details: time 48.0 hrs
786-0 [27] = assay: Effect on TFRC expression in human 786-0 cells in presence of 0.25 uM RSL3 at 1 uM incubated for 2.5 hrs by Western blot analysis; type: functional, cell-based
[28] = Microsomal stability in human liver microsomes assessed as hepatic clearance at 0.1 uM by LC-MS/MS analysis; type: ADME, Microsome
786-0 [29] = assay: Inhibition of RSL3-induced ferroptosis in human 786-0 cells assessed as cell protection by assessing cell morphology at 1 uM incubated for 24 hrs; type: functional, cell-based
786-0 [30] = assay: Inhibition of RSL3 induced ferroptosis in human 786-0 cells assessed as cell viability in presence of iFSP1 at 1 uM measured after 24 hrs by CellTiter-LumiTM assay; type: functional, cell-based
786-0 [31] = assay: Effect on TFRC expression in human 786-0 cells at 1 uM incubated for 2.5 hrs by Western blot analysis; type: functional, cell-based
[32] = Microsomal stability in human liver microsomes assessed as hepatic extraction ratio at 0.1 uM by LC-MS/MS analysis; type: ADME, Microsome; details: read-out: ERH
[33] = Inhibition of RSL3 induced ferroptosis in human HT-1080 cells assessed as cell viability incubated for 24 hrs by CellTiter-LumiTM assay; type: functional, cell-based; details: HT-1080, 24 h
786-0 [34] = assay: Effect on ACSL4 expression in human 786-0 cells at 1 uM incubated for 2.5 hrs by Western blot analysis; type: functional, cell-based
786-0 [35] = assay: Effect on FTL expression in human 786-0 cells at 1 uM incubated for 2.5 hrs by western blot analysis; type: functional, cell-based
786-0 [36] = assay: Inhibition of RSL3-induced ferroptosis in human 786-0 cells assessed as cell viability by assessing cell morphology incubated for 24 hrs by CellTiter-LumiTM plus luminescent cell viability assay; type: functional, cell-based; details: 786-0, 24 h
[37] = Microsomal stability in human liver microsomes assessed as half life at 0.1 uM by LC-MS/MS analysis; type: ADME, Microsome; details: liver microsomes
[38] = Suppression of autoxidation of liposomes egg ( unknown origin) phosphatidylcholine lipids as substrate at 0.1 to 2.5 uM incubated for 5 min by C11-BODIPY 581/591 dye based fluorescent assay; type: functional; details: dose 0.1-2.5 µM
[39] = Metal chelating activity assessed as Fe2+ chelation assessed as absorbance peak at 430 nm by UV-vis spectroscopy; details: dose 1.0 µM
Mus musculus [40] = assay: Anti-ferroptotic activity in ConA-induced C57 mouse acute liver injury model assessed as reduction in malondialdehyde levels at 10 mg/kg, ip pre-administered one day followed by treated with ConA measured after 24 hrs by MDA kit assay; type: functional, organism-based; details: time 48.0 hrs
[41] = Microsomal stability in rat liver microsomes assessed as half life at 0.1 uM by LC-MS/MS analysis; type: ADME, Microsome; details: liver microsomes
786-0 [42] = assay: Inhibition of RSL3 induced lipid-ROS accumulation in human 786-0 cells assessed as fast elimination at 1 uM measured after 0.25 to 2.5 hrs by C11-BODIPY 581/591 staining coupled with flow cytometry analysis; type: functional, cell-based; details: time 0.25-2.5 hrs
[43] = Inhibition of RSL3 induced ferroptosis in human MHCC97H cells assessed as cell viability incubated for 24 hrs by CellTiter-LumiTM assay; type: functional, cell-based
786-0 [44] = assay: Effect on GPX4 expression in human 786-0 cells at 1 uM incubated for 2.5 hrs by Western blot analysis; type: functional, cell-based
786-0 [45] = assay: Metal chelating activity assessed as Fe2+ chelation in human 786-0 cells assessed as intracellular ferrous ion level at 1 uM by FerroOrange fluorescent probe based assay; type: cell-based
786-0 [46] = assay: Inhibition of H2O2 induced necrosis in human 786-0 cells assessed as cell viability at 1 uM incubated for 24 hrs by CellTiter-LumiTM assay; type: functional, cell-based
[47] = Microsomal stability in human liver microsomes assessed as hepatic clearance at 1 uM by LC-MS/MS analysis; type: ADME, Microsome
[48] = Microsomal stability in rat liver microsomes assessed as hepatic extraction ratio at 1 uM by LC-MS/MS analysis; type: ADME, Microsome; details: read-out: ERH
[49] = Microsomal stability in human liver microsomes assessed as hepatic extraction ratio at 1 uM by LC-MS/MS analysis; type: ADME, Microsome; details: read-out: ERH

With `COc1cccc(C2N(c3ccccc3)N=C(C(C)=O)N2c2ccc(N(C)C)cc2)c1OCc1ccc(F)c(F)c1` (stereo not given) as the molecule, how does the inhibition (SK-HEP1 [1]) read?
The inhibition was “Active”.

And the half-life at 1 µM [2]?
Its half-life at 1 µM is 6.58 h.

What about the EC50 (786-0 [3]) of the same molecule?
Its EC50 is 60 nM.

What about the Activity (786-0 [4]) of the same molecule?
The Activity was “inactive”.

And the inhibition (786-0 [5])?
Its inhibition is “inactive”.

What about the Activity (786-0 [6]) of the same molecule?
Its Activity is “inactive”.

What about the hepatic extraction ratio at 0.1 µM [7] of the same molecule?
Its hepatic extraction ratio at 0.1 µM is 0.987.

What about the Activity (Mus musculus [8]) of the same molecule?
Its Activity is “Active”.

And the Activity (Mus musculus [9])?
Its Activity is “Active”.

And the EC50 [10]?
Its EC50 is 122 nM.

And the inhibition (786-0 [11])?
The inhibition was “Dose-dependent-effect”.

What about the Activity [12] of the same molecule?
Its Activity is “Active”.

And the Activity (786-0 [13])?
Its Activity is “No effect”.

What about the Activity (Mus musculus [14]) of the same molecule?
Its Activity is “Active”.

What about the Activity (HT-1080) of the same molecule?
Its Activity is “Active”.

What about the Activity (786-0 [15]) of the same molecule?
Its Activity is “inactive”.

And the Activity (Mus musculus [16])?
Its Activity is “Active”.

And the half-life at 1 µM [17]?
The half-life at 1 µM was 33.7 h.

What about the inhibition (SK-HEP1 [18]) of the same molecule?
The inhibition was “Active”.

What about the Activity (786-0 [19]) of the same molecule?
The Activity was “inactive”.

What about the EC50 [20] of the same molecule?
Its EC50 is 44 nM.

And the Activity (786-0 [21])?
The Activity was “No effect”.

What about the EC50 [22] of the same molecule?
Its EC50 is 134 nM.

And the CC50 (786-0 [23])?
The CC50 was > 40000 nM.

And the CLhep predicted at 0.1 µM [24]?
Its CLhep predicted at 0.1 µM is 54.5 mL/min/kg.

What about the Activity (786-0 [25]) of the same molecule?
Its Activity is “No effect”.

And the Activity (Mus musculus [26])?
The Activity was “Active”.

What about the Activity (786-0 [27]) of the same molecule?
The Activity was “inactive”.

And the CLhep predicted at 0.1 µM [28]?
The CLhep predicted at 0.1 µM was 20.4 mL/min/kg.

And the Activity (786-0 [29])?
The Activity was “Active”.

And the inhibition (786-0 [30])?
Its inhibition is “Active”.

What about the Activity (786-0 [31]) of the same molecule?
Its Activity is “No effect”.

And the hepatic extraction ratio at 0.1 µM [32]?
Its hepatic extraction ratio at 0.1 µM is 0.986.

What about the EC50 [33] of the same molecule?
The EC50 was 186 nM.

What about the Activity (786-0 [34]) of the same molecule?
Its Activity is “No effect”.

And the Activity (786-0 [35])?
Its Activity is “No effect”.

And the EC50 (786-0 [36])?
The EC50 was 62 nM.

What about the half-life at 0.1 µM [37] of the same molecule?
The half-life at 0.1 µM was 5.74 min.

What about the Activity [38] of the same molecule?
The Activity was “Dose-dependent-effect”.

And the Activity [39]?
Its Activity is “inactive”.

And the Activity (Mus musculus [40])?
The Activity was “Active”.

And the half-life at 0.1 µM [41]?
Its half-life at 0.1 µM is 2.87 min.

What about the inhibition (786-0 [42]) of the same molecule?
Its inhibition is “Active; Eliminated As Fast As Fer-1”.

What about the EC50 [43] of the same molecule?
The EC50 was 288 nM.

What about the Activity (786-0 [44]) of the same molecule?
The Activity was “No effect”.

What about the Activity (786-0 [45]) of the same molecule?
Its Activity is “inactive”.

And the inhibition (786-0 [46])?
Its inhibition is “inactive”.

Which CLhep predicted at 1 µM [47] does the source give for `C[C@]12CC[C@H]3[C@@H](CCC4=CC(=O)CC[C@@]43C)[C@@H]1CC[C@@H]2O` [TESTOSTERONE] here?
The CLhep predicted at 1 µM was 19.3 mL/min/kg.

What about the hepatic extraction ratio at 1 µM [48] of the same molecule?
Its hepatic extraction ratio at 1 µM is 0.994.

And the hepatic extraction ratio at 1 µM [49]?
Its hepatic extraction ratio at 1 µM is 0.935.
